This note sets out measurements from EP0549264A1, “Purified para-nitrobenzyl esterase from bacillus” (OKLAHOMA STATE UNIVERSITY, priority 1991, dated 1993).

One test deals with T1, PNB esterase (Bacillus subtilis, UniProt P37967).
T1 construct: A culture of Bacillus subtilis NRRL B-8079 was harvested and frozen by conventional methods; made in house; host or cells: Bacillus subtilis NRRL B-8079 (natural producer; enzyme purified from cell-free extract)
T1 sequence (P37967 1-489): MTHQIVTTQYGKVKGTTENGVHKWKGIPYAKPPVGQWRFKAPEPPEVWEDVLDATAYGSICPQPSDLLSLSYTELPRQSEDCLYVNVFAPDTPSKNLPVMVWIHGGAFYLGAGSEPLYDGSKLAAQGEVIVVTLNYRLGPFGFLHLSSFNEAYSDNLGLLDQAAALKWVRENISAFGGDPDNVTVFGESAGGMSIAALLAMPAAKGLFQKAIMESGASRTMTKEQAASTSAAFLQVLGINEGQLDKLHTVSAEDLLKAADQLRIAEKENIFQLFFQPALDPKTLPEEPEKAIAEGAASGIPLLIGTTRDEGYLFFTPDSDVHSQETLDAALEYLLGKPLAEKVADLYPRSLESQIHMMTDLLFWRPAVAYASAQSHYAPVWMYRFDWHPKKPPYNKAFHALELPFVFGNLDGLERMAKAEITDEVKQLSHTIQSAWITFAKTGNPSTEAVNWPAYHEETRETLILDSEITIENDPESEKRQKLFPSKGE
Nature of the test: PNB esterase activity assay (HPLC, method of Example 1D), effect of inhibitors. It is filed as biochemical.
Settings: not given
A word on the inhibition: it is the relative decrease from the control value, in per cent. `OCCS` [2-Mercaptoethanol] displayed an inhibition at 1000 µM of 0%.
On the same count and under the same terms, under `O=C(O)c1cc(SSc2ccc([N+](=O)[O-])c(C(=O)O)c2)ccc1[N+](=O)[O-]` [5,5'-Dithiobis(2-nitrobenzoic acid)] stands 69%.
For `C(=NC1CCCCC1)=NC1CCCCC1` [Dicyclohexyl carbodiimide], the “PNB esterase activity inhibited (in words)” value is reported as “moderately inhibited” and the inhibition at 1000 µM is 78%.
In the same order, the values of `CCOC(=O)OC(=O)OCC` [Diethylpyrocarbonate] are “strongly inhibited” and 100%.
Turning to `O=C(O)CN(CCN(CC(=O)O)CC(=O)O)CC(=O)O` [EDTA, ethylenediamine tetraacetic acid], the inhibition at 1000 µM was 0%.
With `O=S(=O)([O-])[O-].[Fe+2]` [FeSO4], the “Inhibition (%)” value is given as 100%.
On to `[Cl][Hg][Cl]` [HgCl₂], for which the “Inhibition (%)” value worked out at 100% and the “PNB esterase activity inhibited (in words)” value is “moderately inhibited”.
In the same order, the values of `O=C(NC(Cc1ccccc1)C(=O)Nc1ccc2ccccc2c1)c1ccccc1` (centres unmarked) [N-benzoyl phenylalanine naptylamide] are 66% and “moderately inhibited”.
For `O=CC(=O)c1ccccc1` [Phenylglyoxal], the “PNB esterase activity inhibited (in words)” value was “moderately inhibited” and at 1000 µM the inhibition was 91%.
For the compound `O=S(=O)(F)Cc1ccccc1` [Phenylmethylsulfonylfluoride], the “PNB esterase activity inhibited (in words)” value is reported as “strongly inhibited”.
As for `CC(=O)[O-].CC(=O)[O-].[Zn+2]` [Zn(OCOCH₃)₂], the “Inhibition (%)” value came out at 97%.
On to Diethyl p-nitrophenylphosphate, for which the “Inhibition (%)” value is on record as 100% and the “PNB esterase activity inhibited (in words)” value was “strongly inhibited”.

Staying with this test, now noted: summary in words of Table 2; compounds at 1 mM.
`O=C(O)c1cc(SSc2ccc([N+](=O)[O-])c(C(=O)O)c2)ccc1[N+](=O)[O-]` [5,5'-Dithiobis(2-nitrobenzoic acid)]: the “PNB esterase activity inhibited (in words)” value is reported as “moderately inhibited”.

The next test has as its target T1, PNB esterase. The experiment in a line: Substrate specificity comparison of native and recombinant PNB esterase. The test is classed as biochemical. To be noted: both native enzyme and enzyme from recombinant Escherichia coli. How it is done:
A 1 ml reaction mixture containing 5 µmoles Bis-Tris-Propane-HCl, pH 6.5, 0.5 µmole substrate (loracarbef PNB ester, or cefaclor PNB ester), and appropriate amounts of enzyme solution was incubated at 37°C in a constant-temperature shaker for 30 minutes The reaction was stopped by the addition of an equal volume of acetonitrile. The mixture was then centrifuged to remove the protein and the supernatant solution was analyzed by high performance liquid chromatography (HPLC) for product formation and substrate disappearance. The HPLC was performed in a C-18 reverse-phase column (Nova-Pak C₁₈ radial-pak cartridge (8 X 100 mm), Millipore Bedford, MA) with a linear gradient formed by Buffer A containing 80% of 1 mM Triethylamine-HCl, pH 2.5 and 20% methanol and Buffer B containing methanol, at a flow rate of 1 ml/minutes
The HPLC system used was a Varian HPLC system including a Vista 5560 unit (Varian Associates, Sugar Land TX) and a model 230-401 auto-sampling injector (Gilson Medical Electronics, Middleton, WI.). The PNB esterase activity was determined by monitoring product formation at 254 nm.
The PNB esterase purified from recombinant Escherichia coli was compared to the native enzyme by molecular weight, Western blot analysis, and substrate specificity.
Measurements of molecular weight gave values of 54,000 for enzyme from the two sources, and identical precipitin bands were obtained when the two enzyme preparations were tested using antibody prepared against native purified esterase. Both enzymes hydrolyzed cefaclor PNB ester, cefaclor nucleus PNB ester, loracarbef PNB ester, and loracarbef nucleus PNB ester. The native PNB esterase and the corresponding PNB esterase produced in recombinant E. coli strains appear functionally identical and structually the same at macroscale.
For `N[C@@H](C(=O)N[C@@H]1C(=O)N2C(C(=O)OCc3ccc([N+](=O)[O-])cc3)=C(Cl)CS[C@H]12)c1ccccc1` [cefaclor PNB ester], the “hydrolysis by PNB esterase” value is on record as “hydrolyzed”.
The same measure, in the same setting: the value for `N[C@@H]1C(=O)N2C(C(=O)OCc3ccc([N+](=O)[O-])cc3)=C(Cl)CS[C@H]12` [cefaclor nucleus PNB ester] was “hydrolyzed”; that for `N[C@@H](C(=O)N[C@@H]1C(=O)N2C(C(=O)OCc3ccc([N+](=O)[O-])cc3)=C(Cl)CC[C@H]12)c1ccccc1` [loracarbef PNB ester] was “hydrolyzed”; that for `N[C@@H]1C(=O)N2C(C(=O)OCc3ccc([N+](=O)[O-])cc3)=C(Cl)CC[C@H]12` [loracarbef nucleus PNB ester] was “hydrolyzed”.
